For assay [1], the target named is T1, FLAG-NR0B1 (WT) (Homo sapiens, UniProt P51843).
T1 construct: expressed in transfected cells; host or cells: HEK-293T, transient, pRK5-based vector
Put plainly: Gel-based BPK-29yne labeling of NR0B1 and competition in HEK293T cells. In kind it is cell-based. To be noted: 30 min, in-gel fluorescence. On the procedure:
(§1) 4×10^6 HEK-293T cells were seeded in poly-L-lysine coated 10 cm plates and transfected the next day with 5 μg of FLAG-NR0B1, FLAG-NR0B1-C274V, or FLAG-METAP2 cDNA in a pRK5-based expression vector. 48 h after transfection, cells were treated with indicated concentrations of BPK-29 or control compound BPK-27 for 3 h at 37° C. in DMEM containing 10% FBS and supplements as described in Cell Culture. BPK-29yne (5 μM) was then added and incubated for an additional 30 min at 37° C. FLAG immunoprecipitates were prepared as described above and following washes, the FLAG resin was resuspended in PBS (100 μL). To each sample, 12 μL of a freshly prepared “click” reagent mixture was added to conjugate the fluorophore to probe-labeled proteins. […] Samples were boiled for 5 min and proteins were resolved by SDS-PAGE (10% acrylamide), and visualized by in-gel fluorescence on a Bio-Rad ChemiDoc MP flatbed fluorescence scanner. Samples were also analyzed by immunoblotting. Recombinantly expressed FLAG-tagged protein levels were determined with the FLAG antibody (Sigma). Gel fluorescence and imaging was processed using Image Lab (v 5.2.1) software.

The target in assay [2] is T2, FLAG-NR0B1-C274V (Homo sapiens, UniProt P51843, C274V).
T2 construct: expressed in transfected cells; host or cells: HEK-293T, transient, pRK5-based vector
Put plainly: Gel-based BPK-29yne labeling of the NR0B1-C274V mutant in HEK293T cells. In kind it is cell-based. Particulars: 30 min, in-gel fluorescence. As to the method: as §1

T2 sequence (P51843 whole entry C274V): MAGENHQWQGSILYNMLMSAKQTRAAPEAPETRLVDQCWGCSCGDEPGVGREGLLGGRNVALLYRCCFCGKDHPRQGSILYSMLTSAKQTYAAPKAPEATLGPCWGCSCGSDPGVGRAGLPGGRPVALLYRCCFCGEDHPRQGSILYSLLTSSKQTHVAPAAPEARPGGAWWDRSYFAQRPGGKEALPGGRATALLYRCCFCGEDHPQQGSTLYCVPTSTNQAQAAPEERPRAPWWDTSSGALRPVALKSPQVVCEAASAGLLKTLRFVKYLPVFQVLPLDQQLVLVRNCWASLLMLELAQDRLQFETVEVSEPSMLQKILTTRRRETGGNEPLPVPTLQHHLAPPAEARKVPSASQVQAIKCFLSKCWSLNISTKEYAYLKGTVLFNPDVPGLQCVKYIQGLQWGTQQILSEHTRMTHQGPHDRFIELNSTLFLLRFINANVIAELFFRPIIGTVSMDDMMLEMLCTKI
T1 sequence (P51843 whole entry): as the sequence (P51843 whole entry C274V) above, with V274C counted along it

As for `C#Cc1cccc(CN(C(=O)CCl)C2CCCN(C(=O)c3ccc(N4CCOCC4)cc3)CC2)c1` (centres unmarked) [BPK-29yne, 2-chloro-N-(3-ethynylbenzyl)-N-(1-(4-morpholinobenzoyl)azepan-4-yl)acetamide], the “BPK-29yne labeling of WT-NR0B1” value in assay [1] is “labeled WT-NR0B1”. Also, the “BPK-29yne labeling of NR0B1 C274V mutant” value in assay [2] is listed as “but not a C274V mutant”.

Source of the values: patent US20200278355A1, “CONJUGATED PROTEINS AND USES THEREOF” (THE SCRIPPS RESEARCH INSTITUTE, priority 2017, published 2020).
